Measured values reported in PubChem BioAssay (NCI).
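How tested: cells in 96-well plates exposed to compound for 48 hours at five concentrations. At the TGI there is no net growth.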

How the values were obtained:
Assay in all cases: NCI tumour cell line growth inhibition, 48 h
SN12C renal = system: SN12C renal
M19-MEL melanoma = system: M19-MEL melanoma
SK-OV-3 ovarian = system: SK-OV-3 ovarian
UO-31 renal = system: UO-31 renal
MALME-3M melanoma = system: MALME-3M melanoma
HOP-62 NSCLC = system: HOP-62 NSCLC
HCC-2998 colon = system: HCC-2998 colon
OVCAR-4 ovarian = system: OVCAR-4 ovarian
A498 renal = system: A498 renal
SNB-78 CNS = system: SNB-78 CNS
SF-295 CNS = system: SF-295 CNS
SW-620 colon = system: SW-620 colon
DMS 114 small cell lung = system: DMS 114 small cell lung
SK-MEL-5 melanoma = system: SK-MEL-5 melanoma
P388/ADR leukemia = system: P388/ADR leukemia
KM12 colon = system: KM12 colon
OVCAR-3 ovarian = system: OVCAR-3 ovarian
OVCAR-5 ovarian = system: OVCAR-5 ovarian
DMS 273 small cell lung = system: DMS 273 small cell lung
KM20L2 colon = system: KM20L2 colon
CAKI-1 renal = system: CAKI-1 renal
SF-268 CNS = system: SF-268 CNS
RPMI-8226 leukemia = system: RPMI-8226 leukemia
UACC-257 melanoma = system: UACC-257 melanoma
OVCAR-8 ovarian = system: OVCAR-8 ovarian
HL-60(TB) leukemia = system: HL-60(TB) leukemia
NCI-H522 lung = system: NCI-H522 lung
SNB-19 CNS = system: SNB-19 CNS
UACC-62 melanoma = system: UACC-62 melanoma
SNB-75 CNS = system: SNB-75 CNS
XF 498 CNS = system: XF 498 CNS
HOP-18 NSCLC = system: HOP-18 NSCLC
LOX IMVI melanoma = system: LOX IMVI melanoma
HCT-15 colon = system: HCT-15 colon
HOP-92 NSCLC = system: HOP-92 NSCLC
SK-MEL-2 melanoma = system: SK-MEL-2 melanoma
A549 NSCLC = system: A549 NSCLC
K-562 leukemia = system: K-562 leukemia
NCI/ADR-RES ovarian = system: NCI/ADR-RES ovarian
NCI-H226 lung = system: NCI-H226 lung
CCRF-CEM leukemia = system: CCRF-CEM leukemia
U251 CNS = system: U251 CNS
IGROV1 ovarian = system: IGROV1 ovarian
EKVX NSCLC = system: EKVX NSCLC
COLO 205 colon = system: COLO 205 colon
HT29 colon = system: HT29 colon
NCI-H23 lung = system: NCI-H23 lung
NCI-H460 lung = system: NCI-H460 lung
SN12K1 renal = system: SN12K1 renal
MOLT-4 leukemia = system: MOLT-4 leukemia
MCF7 breast = system: MCF7 breast
HCT-116 colon = system: HCT-116 colon
DLD-1 colon = system: DLD-1 colon
SF-539 CNS = system: SF-539 CNS
SK-MEL-28 melanoma = system: SK-MEL-28 melanoma
RXF 393 renal = system: RXF 393 renal
P388 leukemia = system: P388 leukemia

Compound `CC1[C@@H]2CC=C3C4CCC5Cc6nc7c(nc6C[C@@]5(C)C4CC(=O)[C@]32CO[C@@]1(O)C(O)CC(C)(C)O)CC1CCC2C3=C[C@H]4O[C@@]5(O[C@@](C)(CO)C[C@@H]5O)C(C)[C@@]4(O)[C@]3(C)[C@@H](O)CC2[C@]1(C)C7` (stereo partly specified) has a TGI (SN12C renal) of 2900 nM, a TGI (M19-MEL melanoma) of 729 nM and a TGI (SK-OV-3 ovarian) of 27.9 nM. The TGI (UO-31 renal) was 83.6 nM, the TGI (MALME-3M melanoma) was 91.1 nM and the TGI (HOP-62 NSCLC) was 2.48 nM. It also gave a TGI (HCC-2998 colon) of 832 nM, a TGI (OVCAR-4 ovarian) of 1290 nM and a TGI (A498 renal) of 11.2 nM. It also gave a TGI (SNB-78 CNS) of 483 nM, a TGI (SF-295 CNS) of 0.713 nM and a TGI (SW-620 colon) of 56.4 nM. The TGI (DMS 114 small cell lung) was 0.0471 µM, the TGI (SK-MEL-5 melanoma) was 46.9 nM and the TGI (P388/ADR leukemia) was 89.1 nM. The TGI (KM12 colon) was 571 nM, the TGI (OVCAR-3 ovarian) was 2360 nM and the TGI (OVCAR-5 ovarian) was 62.8 nM. For the same compound, the TGI (DMS 273 small cell lung) was 1.74 nM, the TGI (KM20L2 colon) was 137 nM and the TGI (CAKI-1 renal) was 417 nM. The TGI (SF-268 CNS) was 124 nM, the TGI (RPMI-8226 leukemia) was 45 nM and the TGI (UACC-257 melanoma) was 112 nM. It also gave a TGI (OVCAR-8 ovarian) of 3.6 µM, a TGI (HL-60(TB) leukemia) of 58.1 nM and a TGI (NCI-H522 lung) of 0.124 µM. The TGI (SNB-19 CNS) was 329 nM, the TGI (UACC-62 melanoma) was 10.8 nM and the TGI (SNB-75 CNS) was 3.13 nM. It also gave a TGI (XF 498 CNS) of 50.2 nM, a TGI (HOP-18 NSCLC) of 739 nM and a TGI (LOX IMVI melanoma) of 91.4 nM. For the same compound, the TGI (HCT-15 colon) was 330 nM, the TGI (HOP-92 NSCLC) was 1120 nM and the TGI (SK-MEL-2 melanoma) was 89.1 nM. The TGI (A549 NSCLC) was 383 nM, the TGI (K-562 leukemia) was 434 nM and the TGI (NCI/ADR-RES ovarian) was 2740 nM. The TGI (NCI-H226 lung) was 376 nM, the TGI (CCRF-CEM leukemia) was 29.4 nM and the TGI (U251 CNS) was 34.5 nM. For the same compound, the TGI (IGROV1 ovarian) was 736 nM, the TGI (EKVX NSCLC) was 47.9 nM and the TGI (COLO 205 colon) was 60.8 nM. The TGI (HT29 colon) was 48.4 nM, the TGI (NCI-H23 lung) was 27.2 nM and the TGI (NCI-H460 lung) was 36.4 nM. It also gave a TGI (SN12K1 renal) of 406 nM, a TGI (MOLT-4 leukemia) of 376 nM and a TGI (MCF7 breast) of 192 nM. The TGI (HCT-116 colon) was 501 nM, the TGI (DLD-1 colon) was 1150 nM and the TGI (SF-539 CNS) was 42.3 nM.
In the case of `O=C1c2ccccc2OCC1/C=N/O` (stereo unspecified), the TGI (SN12C renal) is reported as over 100000 nM, the TGI (M19-MEL melanoma) is reported as over 100000 nM and the TGI (SK-OV-3 ovarian) is reported as over 100000 nM. It also gave a TGI (UO-31 renal) of over 100000 nM, a TGI (MALME-3M melanoma) of over 100000 nM and a TGI (HOP-62 NSCLC) of over 100000 nM. It also gave a TGI (HCC-2998 colon) of over 100000 nM, a TGI (OVCAR-4 ovarian) of over 100000 nM and a TGI (A498 renal) of over 100000 nM. It also gave a TGI (SNB-78 CNS) of over 100000 nM, a TGI (SF-295 CNS) of over 100000 nM and a TGI (SW-620 colon) of over 100000 nM. For the same compound, the TGI (DMS 114 small cell lung) was 98.9 µM, the TGI (SK-MEL-5 melanoma) was over 100000 nM and the TGI (KM12 colon) was over 100000 nM. It also gave a TGI (OVCAR-3 ovarian) of over 100000 nM, a TGI (OVCAR-5 ovarian) of over 100000 nM and a TGI (DMS 273 small cell lung) of over 100000 nM. It also gave a TGI (SF-268 CNS) of over 100000 nM, a TGI (RPMI-8226 leukemia) of over 100000 nM and a TGI (UACC-257 melanoma) of over 100000 nM. It also gave a TGI (OVCAR-8 ovarian) of over 100 µM, a TGI (HL-60(TB) leukemia) of over 100000 nM and a TGI (NCI-H522 lung) of 62.1 µM. It also gave a TGI (SK-MEL-28 melanoma) of over 100 µM, a TGI (UACC-62 melanoma) of over 100000 nM and a TGI (SNB-75 CNS) of over 100000 nM. The TGI (XF 498 CNS) was over 100000 nM, the TGI (HOP-18 NSCLC) was over 100000 nM and the TGI (LOX IMVI melanoma) was over 100000 nM. It also gave a TGI (HCT-15 colon) of over 100000 nM, a TGI (HOP-92 NSCLC) of over 96000 nM and a TGI (SK-MEL-2 melanoma) of over 100000 nM. The TGI (A549 NSCLC) was over 100000 nM, the TGI (K-562 leukemia) was over 100000 nM and the TGI (NCI/ADR-RES ovarian) was over 100000 nM. The TGI (NCI-H226 lung) was over 100000 nM, the TGI (CCRF-CEM leukemia) was over 100000 nM and the TGI (U251 CNS) was over 100000 nM. It also gave a TGI (IGROV1 ovarian) of over 100000 nM, a TGI (EKVX NSCLC) of over 100000 nM and a TGI (HT29 colon) of over 100000 nM. It also gave a TGI (NCI-H23 lung) of over 100000 nM, a TGI (RXF 393 renal) of 76.4 µM and a TGI (NCI-H460 lung) of over 100000 nM. It also gave a TGI (SN12K1 renal) of over 100000 nM, a TGI (MOLT-4 leukemia) of over 100000 nM and a TGI (MCF7 breast) of over 100000 nM. For the same compound, the TGI (HCT-116 colon) was over 100000 nM, the TGI (DLD-1 colon) was over 100000 nM and the TGI (P388 leukemia) was over 63.7 µM. It also gave a TGI (SF-539 CNS) of over 100000 nM.
